Laboratory results published in ChEMBL document CHEMBL1177848, “Synthesis of novel 6,6a,7,8-tetrahydro-5H-naphtho[1,2-e]pyrimido[4,5-b][1,4]diazepines under microwave irradiation as potential anti-tumor agents” (2010).
Active and inactive are the calls of the source.

How the values were obtained:
Assay type in all cases: functional, cell-based
[1] = system: HCT-116; experiment: Growth inhibition of human HCT116 cells at 1 uM after 48 hrs by sulforhodamine B assay
[2] = system: HT-29; experiment: Growth inhibition of human HT-29 cells at 1 uM after 48 hrs by sulforhodamine B assay
[3] = system: LOX IMVI; experiment: Growth inhibition of human LOXIMVI cells at 1 uM after 48 hrs by sulforhodamine B assay
[4] = system: SN12C; experiment: Growth inhibition of human SN12C cells at 1 uM after 48 hrs by sulforhodamine B assay
[5] = system: MDA-MB-231; experiment: Growth inhibition of human MDA-MB-231 cells at 1 uM after 48 hrs by sulforhodamine B assay
[6] = system: UACC-257; experiment: Growth inhibition of human UACC257 cells at 1 uM after 48 hrs by sulforhodamine B assay
[7] = system: MDA-MB-468; experiment: Growth inhibition of human MDA-MB-468 cells at 1 uM after 48 hrs by sulforhodamine B assay
[8] = system: SR; experiment: Growth inhibition of human SR cells at 1 uM after 48 hrs by sulforhodamine B assay
[9] = system: UACC-62; experiment: Growth inhibition of human UACC62 cells at 1 uM after 48 hrs by sulforhodamine B assay
[10] = system: OVCAR-3; experiment: Growth inhibition of human OVCAR-3 cells at 1 uM after 48 hrs by sulforhodamine B assay
[11] = system: OVCAR-8; experiment: Growth inhibition of human OVCAR8 cells at 1 uM after 48 hrs by sulforhodamine B assay
[12] = system: KM12; experiment: Growth inhibition of human KM12 cells at 1 uM after 48 hrs by sulforhodamine B assay
[13] = system: RPMI-8226; experiment: Growth inhibition of human RPMI8226 cells at 1 uM after 48 hrs by sulforhodamine B assay
[14] = system: SF-268; experiment: Growth inhibition of human SF268 cells at 1 uM after 48 hrs by sulforhodamine B assay
[15] = system: PC-3; experiment: Growth inhibition of human PC3 cells at 1 uM after 48 hrs by sulforhodamine B assay
[16] = system: U-251; experiment: Growth inhibition of human U251 cells at 1 uM after 48 hrs by sulforhodamine B assay
[17] = system: MOLT-4; experiment: Growth inhibition of human MOLT4 cells at 1 uM after 48 hrs by sulforhodamine B assay
[18] = system: A549; experiment: Growth inhibition of human A549 cells at 1 uM after 48 hrs by sulforhodamine B assay
[19] = system: 786-0; experiment: Growth inhibition of human 786-0 cells at 1 uM after 48 hrs by sulforhodamine B assay
[20] = system: NCI-H322M; experiment: Growth inhibition of human […] cells at 1 uM after 48 hrs by sulforhodamine B assay
[21] = system: K562; experiment: Growth inhibition of human K562 cells at 1 uM after 48 hrs by sulforhodamine B assay
[22] = system: A498; experiment: Growth inhibition of human A498 cells at 1 uM after 48 hrs by sulforhodamine B assay
[23] = system: CCRF-CEM; experiment: Growth inhibition of human CCRF-CEM cells at 1 uM after 48 hrs by sulforhodamine B assay
[24] = system: TK-10; experiment: Growth inhibition of human TK10 cells at 1 uM after 48 hrs by sulforhodamine B assay
[25] = system: UO-31; experiment: Growth inhibition of human UO31 cells at 1 uM after 48 hrs by sulforhodamine B assay
[26] = system: T47D; experiment: Growth inhibition of human T47D cells at 1 uM after 48 hrs by sulforhodamine B assay
[27] = system: HOP-62; experiment: Growth inhibition of human HOP62 cells at 1 uM after 48 hrs by sulforhodamine B assay
[28] = system: DU-145; experiment: Growth inhibition of human DU145 cells at 1 uM after 48 hrs by sulforhodamine B assay
[29] = system: Malme-3M; experiment: Growth inhibition of human MALME-3M cells at 1 uM after 48 hrs by sulforhodamine B assay
[30] = system: HCC 2998; experiment: Growth inhibition of human HCC2998 cells at 1 uM after 48 hrs by sulforhodamine B assay
[31] = system: SW-620; experiment: Growth inhibition of human SW620 cells at 1 uM after 48 hrs by sulforhodamine B assay
[32] = system: MCF7; experiment: Growth inhibition of human MCF7 cells at 1 uM after 48 hrs by sulforhodamine B assay
[33] = system: SF-539; experiment: Growth inhibition of human SF539 cells at 1 uM after 48 hrs by sulforhodamine B assay
[34] = system: SF-295; experiment: Growth inhibition of human SF295 cells at 1 uM after 48 hrs by sulforhodamine B assay
[35] = system: NCI-H226; experiment: Growth inhibition of human NCI-H226 cells at 1 uM after 48 hrs by sulforhodamine B assay
[36] = system: NCI-H460; experiment: Growth inhibition of human NCI-H460 cells at 1 uM after 48 hrs by sulforhodamine B assay
[37] = system: HCT-15; experiment: Growth inhibition of human HCT15 cells at 1 uM after 48 hrs by sulforhodamine B assay
[38] = system: M14; experiment: Growth inhibition of human M14 cells at 1 uM after 48 hrs by sulforhodamine B assay
[39] = system: BT-549; experiment: Growth inhibition of human BT549 cells at 1 uM after 48 hrs by sulforhodamine B assay
[40] = system: RXF 393; experiment: Growth inhibition of human RXF393 cells at 1 uM after 48 hrs by sulforhodamine B assay
[41] = system: SK-MEL-28; experiment: Growth inhibition of human SK-MEL-28 cells at 1 uM after 48 hrs by sulforhodamine B assay
[42] = system: NCI/ADR-RES; experiment: Growth inhibition of human NCI/ADR-RES cells at 1 uM after 48 hrs by sulforhodamine B assay
[43] = system: ACHN; experiment: Growth inhibition of human ACHN cells at 1 uM after 48 hrs by sulforhodamine B assay
[44] = system: SF530; experiment: Growth inhibition of human SF530 cells at 1 uM after 48 hrs by sulforhodamine B assay
[45] = system: IGROV-1; experiment: Growth inhibition of human IGROV1 cells at 1 uM after 48 hrs by sulforhodamine B assay
[46] = system: SK-MEL-5; experiment: Growth inhibition of human SK-MEL-5 cells at 1 uM after 48 hrs by sulforhodamine B assay
[47] = system: Hs-578T; experiment: Growth inhibition of human Hs 578T cells at 1 uM after 48 hrs by sulforhodamine B assay
[48] = system: HL-60; experiment: Growth inhibition of human HL-60(TB) cells at 1 uM after 48 hrs by sulforhodamine B assay
[49] = system: NCI-H23; experiment: Growth inhibition of human NCI-H23 cells at 1 uM after 48 hrs by sulforhodamine B assay
[50] = system: MDA-MB-435; experiment: Growth inhibition of human MDA-MB-435 cells at 1 uM after 48 hrs by sulforhodamine B assay
[51] = system: CAKI-1; experiment: Growth inhibition of human Caki1 cells at 1 uM after 48 hrs by sulforhodamine B assay
[52] = system: HOP-92; experiment: Growth inhibition of human HOP92 cells at 1 uM after 48 hrs by sulforhodamine B assay
[53] = system: SK-MEL-2; experiment: Growth inhibition of human SK-MEL-2 cells at 1 uM after 48 hrs by sulforhodamine B assay
[54] = system: EKVX; experiment: Growth inhibition of human EKVX cells at 1 uM after 48 hrs by sulforhodamine B assay
[55] = system: NCI-H522; experiment: Growth inhibition of human NCI-H522 cells at 1 uM after 48 hrs by sulforhodamine B assay
[56] = system: SNB-75; experiment: Growth inhibition of human SNB75 cells at 1 uM after 48 hrs by sulforhodamine B assay
[57] = system: OVCAR-4; experiment: Growth inhibition of human OVCAR4 cells at 1 uM after 48 hrs by sulforhodamine B assay
[58] = system: COLO 205; experiment: Growth inhibition of human COLO205 cells at 1 uM after 48 hrs by sulforhodamine B assay

Measured: growth inhibition (GI)

Nc1ncnc2c1N=C1c3ccccc3CCC1C(c1ccc(F)cc1)N2 (stereo unspecified)
active: all assays above

Nc1ncnc2c1N=C1c3ccccc3CCC1C(c1ccc(Cl)cc1)N2 (stereo unspecified)
active: all assays above
